The assay concerns the target Alkaline phosphatase, germ cell type (Homo sapiens) (UniProt P10696). As to the kind of experiment: inhibitors of germ cell alkaline phosphatase – biochemical, human placental-like ALPPL2 isozyme, selectivity assay for mouse IAP inhibitor project, SAR follow-up (AID 493136). To be noted: purified placental-like alkaline phosphatase, phosphatase activity.

SMILES strings stand for the structures. pIC50: −log10 of the molar value. Calls of active or inactive are those of the source. The rule behind the calls is not given here. Bounds are passed on as bounds.

Alkaline phosphatase, germ cell type (Homo sapiens), sequence (P10696 whole entry, looked up): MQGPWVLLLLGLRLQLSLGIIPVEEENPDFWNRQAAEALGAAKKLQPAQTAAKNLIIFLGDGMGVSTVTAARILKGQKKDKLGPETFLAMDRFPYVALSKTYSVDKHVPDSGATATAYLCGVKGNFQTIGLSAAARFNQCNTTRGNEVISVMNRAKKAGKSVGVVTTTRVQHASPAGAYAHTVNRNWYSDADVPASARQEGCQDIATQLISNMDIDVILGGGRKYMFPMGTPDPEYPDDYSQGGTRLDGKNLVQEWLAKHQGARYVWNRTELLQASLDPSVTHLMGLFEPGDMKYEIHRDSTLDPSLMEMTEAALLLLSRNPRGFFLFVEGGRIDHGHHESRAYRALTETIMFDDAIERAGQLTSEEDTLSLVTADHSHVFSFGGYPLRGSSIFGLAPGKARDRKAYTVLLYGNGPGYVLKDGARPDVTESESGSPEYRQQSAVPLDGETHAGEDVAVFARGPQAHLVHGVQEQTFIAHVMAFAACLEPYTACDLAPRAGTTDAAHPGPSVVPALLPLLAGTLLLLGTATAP

Usually IC50 stands for the concentration at which inhibition is half-maximal. For the compound `O=C(CN1C(=O)/C(=C/c2ccco2)SC1=S)Nc1ccc(C(=O)O)cc1`, the IC50 is > 100 µM (inactive).
The same measure, in the same setting: the result for `COc1cccc(NC(=S)NCCC(c2ccccc2)c2ccccc2)c1` reads > 100 µM (inactive); that for `COC(=O)c1cc(NC(=S)NCCC(c2ccccc2)c2ccccc2)cc(C(=O)OC)c1`, > 100 µM (inactive).
On the same count and under the same terms, to `Cn1cc(CN2CCC(C(=O)Nc3cccc(-c4cccc(F)c4)c3)CC2)cn1` belongs > 100 µM (inactive).
The same measure, in the same setting: to `COCc1ccc(CN2CCC(C(=O)Nc3cccc(-c4cccc(Cl)c4)c3)CC2)o1` belongs > 100 µM (inactive); to `Cc1cc(C)cc(NC(=S)NCCC(c2ccccc2)c2ccccc2)c1`, > 100 µM (inactive).
Take `FC(F)(F)c1cccc(NC(=S)NCCC(c2ccccc2)c2ccccc2)c1`: the IC50 was > 100 µM (inactive).
On the same count and under the same terms, to `S=C(NCCC(c1ccccc1)c1ccccc1)Nc1ccc(Cl)c(Cl)c1` belongs > 100 µM (inactive); to `C=CCn1cc(CN2CCC(C(=O)Nc3cccc(-c4cccc(Cl)c4)c3)CC2)c(C)n1`, > 100 µM (inactive).
Consider `O=C(Nc1cccc(-c2cccc(Cl)c2)c1)C1CCN(Cc2ccc(CO)o2)CC1`, for which the IC50 is > 100 µM (inactive).
Same read-out and setting: to `Cc1ccc(C)c(NC(=S)NCCC(c2ccccc2)c2ccccc2)c1` belongs > 100 µM (inactive); to `Cc1cccc(NC(=S)NCCC(c2ccccc2)c2ccccc2)c1C`, > 100 µM (inactive); to `O=C(CN1C(=O)/C(=C/c2ccco2)SC1=S)Nc1cccc(C(=O)O)c1`, > 100 µM (inactive).
For `CC(C)N1CCC(=NNC(=O)c2cc(O)c(O)c(O)c2)CC1`, the IC50 was > 100 µM (inactive).
The same measure, in the same setting: to `CCCn1ncc(CN2CCC(C(=O)Nc3cccc(-c4cccc(F)c4)c3)CC2)c1C` belongs > 100 µM (inactive); to `Cc1ccc(NC(=S)NCCC(c2ccccc2)c2ccccc2)cc1C`, > 100 µM (inactive).
Still for that read-out and setting: the result for `CCn1nc(C)c(CN2CCC(C(=O)Nc3cccc(-c4cccc(F)c4)c3)CC2)c1C` reads > 100 µM (inactive); that for `Fc1ccccc1NC(=S)NCCC(c1ccccc1)c1ccccc1`, > 100 µM (inactive); that for `COc1ccc(C(=O)CSc2n[nH]c(-c3ccccc3)n2)cc1OC`, > 100 µM (inactive).
One may read the pIC50 as the IC50 on a negative log10 scale, so that one unit is a factor of ten. For the compound `CCn1c(SCC(=O)c2ccc(O)c(O)c2)nnc1-c1ccccc1OC`, the negative logarithm of the IC50 (pIC50) is 4.61.
Take `S=C(NCCC(c1ccccc1)c1ccccc1)Nc1ccc(Cl)cc1Cl`: the IC50 is > 100 µM (inactive).
For the compound `Cc1ccc(NC(=S)NCCC(c2ccccc2)c2ccccc2)cc1`, the IC50 was > 100 µM (inactive).
Same read-out and setting: to `COc1ccc(NC(=S)NCCC(c2ccccc2)c2ccccc2)cc1` belongs > 100 µM (inactive); to `COc1cccc(-c2cccc(NC(=O)C3CCN(Cc4ccc(CO)o4)CC3)c2)c1`, > 100 µM (inactive).
For `Fc1ccc(NC(=S)NCCC(c2ccccc2)c2ccccc2)cc1Cl`, the IC50 is > 100 µM (inactive).
Take `CCn1cc(CN2CCC(C(=O)Nc3cccc(-c4cccc(Cl)c4)c3)CC2)cn1`: the IC50 was > 100 µM (inactive).
Turning to `COc1cccc(-c2cccc(NC(=O)C3CCN(Cc4ccc(C)o4)CC3)c2)c1`, the IC50 was > 100 µM (inactive).
As for `S=C(NCCC(c1ccccc1)c1ccccc1)Nc1cccc(Cl)c1`, the IC50 was > 100 µM (inactive).
Consider `CC(C)n1cc(CN2CCC(C(=O)Nc3cccc(-c4cccc(F)c4)c3)CC2)cn1`, for which the IC50 is > 100 µM (inactive).
In the case of `CCc1ccccc1Nc1nc(-c2ccc(O)c(O)c2)cs1`, the IC50 was > 100 µM (inactive).
In the case of `CCOC(=O)c1ccc(NC(=S)NCCC(c2ccccc2)c2ccccc2)cc1`, the IC50 is > 100 µM (inactive).
The same measure, in the same setting: the result for `Cc1c(Cl)cccc1Nc1nc(-c2ccc(O)c(O)c2)cs1` reads > 100 µM (inactive); that for `Cc1cc(Cl)ccc1NC(=S)NCCC(c1ccccc1)c1ccccc1`, > 100 µM (inactive); that for `Cc1ccc(CN2CCC(C(=O)Nc3cccc(-c4cccc(F)c4)c3)CC2)o1`, > 100 µM (inactive).
As to `CN1CCC(=NNC(=O)c2cc(O)c(O)c(O)c2)CC1`, the IC50 was > 100 µM (inactive).
In the case of `C=CCn1cc(CN2CCC(C(=O)Nc3cccc(-c4cccc(F)c4)c3)CC2)c(C)n1`, the IC50 was > 100 µM (inactive).
The same measure, in the same setting: to `COc1cc([N+](=O)[O-])ccc1NC(=S)NCCC(c1ccccc1)c1ccccc1` belongs > 100 µM (inactive).
On the same count and under the same terms, to `COc1cc(NC(=S)NCCC(c2ccccc2)c2ccccc2)cc(OC)c1` belongs > 100 µM (inactive); to `S=C(NCCC(c1ccccc1)c1ccccc1)Nc1ccc(Nc2ccccc2)cc1`, > 100 µM (inactive); to `COc1ccc(Cl)cc1NC(=S)NCCC(c1ccccc1)c1ccccc1`, > 100 µM (inactive).
Same read-out and setting: the result for `S=C(NCCC(c1ccccc1)c1ccccc1)Nc1ccc(Cl)cc1` reads > 100 µM (inactive); that for `CCn1cc(CN2CCC(C(=O)Nc3cccc(-c4cccc(F)c4)c3)CC2)cn1`, > 100 µM (inactive); that for `Cc1cc(=O)oc2cc(NC(=S)NCCC(c3ccccc3)c3ccccc3)ccc12`, > 100 µM (inactive).
As to `O=S(=O)(Nc1ncccn1)c1ccc(NC(=S)NCCC(c2ccccc2)c2ccccc2)cc1`, the IC50 is > 100 µM (inactive).
Still for that read-out and setting: to `Cc1ccc(NC(=O)CCNS(=O)(=O)c2ccc3[nH]c(=O)oc3c2)cc1C` belongs > 100 µM (inactive); to `CN(C)S(=O)(=O)c1cccc(NC(=S)NCCC(c2ccccc2)c2ccccc2)c1`, > 100 µM (inactive); to `NS(=O)(=O)c1ccc(NC(=S)NCCC(c2ccccc2)c2ccccc2)cc1`, > 100 µM (inactive).
Turning to `S=C(NCCC(c1ccccc1)c1ccccc1)Nc1ccccc1`, the IC50 was > 100 µM (inactive).
With `CCN1CCN(S(=O)(=O)c2ccc3[nH]c(=O)oc3c2)CC1`, the IC50 was > 100 µM (inactive).
Turning to `CCn1nc(C)c(CN2CCC(C(=O)Nc3cccc(-c4cccc(Cl)c4)c3)CC2)c1C`, the IC50 is > 100 µM (inactive).
In the case of `CC1(c2ccccc2)CC(C)(C)N(C(=S)Nc2ccccc2)c2ccccc21` (stereo not drawn), the IC50 was > 100 µM (inactive).
For the compound `Cc1nn(C(C)C)c(C)c1CN1CCC(C(=O)Nc2cccc(-c3cccc(F)c3)c2)CC1`, the IC50 was > 100 µM (inactive).
Turning to `CCn1ncc(CN2CCC(C(=O)Nc3cccc(-c4cccc(F)c4)c3)CC2)c1C`, the IC50 was > 100 µM (inactive).
Turning to `O=C(Nc1cccc(-c2cccc(F)c2)c1)C1CCN(Cc2ccc(CO)o2)CC1`, the IC50 is > 100 µM (inactive).
As to `O=C(CN1C(=O)/C(=C\c2ccco2)SC1=S)Nc1ccccc1C(=O)O`, the IC50 was > 100 µM (inactive).
Take `Cc1c(Cl)cccc1NC(=S)NCCC(c1ccccc1)c1ccccc1`: the IC50 is > 100 µM (inactive).
The same measure, in the same setting: to `CCn1cc(CN2CCC(C(=O)Nc3cccc(-c4cccc(OC)c4)c3)CC2)c(C)n1` belongs > 100 µM (inactive); to `COc1ccc(Cl)cc1Nc1nc(-c2ccc(O)c(O)c2)cs1`, > 100 µM (inactive); to `CCn1cc(CN2CCC(C(=O)Nc3cccc(-c4cccc(OC)c4)c3)CC2)cn1`, > 100 µM (inactive).
The same measure, in the same setting: to `Cc1c(CN2CCC(C(=O)Nc3cccc(-c4cccc(Cl)c4)c3)CC2)cnn1C` belongs > 100 µM (inactive); to `Cc1cc(NC(=O)CCNS(=O)(=O)c2ccc3[nH]c(=O)oc3c2)ccc1Br`, > 100 µM (inactive).
Still for that read-out and setting: to `CC(C)n1cc(CN2CCC(C(=O)Nc3cccc(-c4cccc(Cl)c4)c3)CC2)cn1` belongs > 100 µM (inactive); to `Cc1nn(C)c(Cl)c1CN1CCC(C(=O)Nc2cccc(-c3cccc(F)c3)c2)CC1`, > 100 µM (inactive); to `Oc1ccc(-c2csc(Nc3cccc4ccccc34)n2)cc1O`, > 100 µM (inactive).
For the compound `CC(C)c1ccccc1NC(=S)NCCC(c1ccccc1)c1ccccc1`, the IC50 is > 100 µM (inactive).
On the same count and under the same terms, the result for `O=[N+]([O-])c1ccc(NC(=S)NCCC(c2ccccc2)c2ccccc2)cc1` reads > 100 µM (inactive); that for `O=C(Nc1cccc(-c2cccc(Cl)c2)c1)C1CCN(C2CCC2)CC1`, > 100 µM (inactive); that for `Cn1cc(CN2CCC(C(=O)Nc3cccc(-c4cccc(Cl)c4)c3)CC2)cn1`, > 100 µM (inactive).

The values above are taken from PubChem BioAssay AID493136 (Sanford-Burnham Center for Chemical Genomics, 2011).
